Test results reported in patent US5414144A, “Propylene glycol cyclohexyl ether derivatives, method of producing same and uses thereof” (Asahi Kasei Kogyo Kabushiki Kaisha, priority 1993, dated 1995).
Like-named read-outs stand apart in the source and are kept apart here.

Columns and labels:
[1] = type: physicochemical
Procedure: The boiling point was determined from the temperature and pressure of the vapor at the top of the distillation column.

Flash point (JIS-K2265) = type: physicochemical
[2] = for Solubility (In water) / Solubility (Water in): 20° C.; for Solubility (In water): solubility of the sample compound in water; for Solubility (In water) / solubility in water: 30 min; for Solubility (Water in): solubility of water in the sample compound; for solubility in water: Table 2
Procedure: (3) Solubility ("water in" and "in water")
10 g of a sample compound (liquid) was mixed with 10 g of water and then allowed to stand still for 30 minutes, so that the mixture was permitted to separate into a sample compound layer and an aqueous layer. Then, the water content of the sample compound layer was measured using a Karl Fischer moisture meter manufactured by Kyoto Electronics Co., Ltd., Japan, and the obtained value was taken as a solubility of water in the sample compound. The content of the sample compound in the aqueous layer was measured using GC and the obtained value was taken as a solubility of the sample compound in water.

Viscosity = type: physicochemical; conditions: 25° C.
Procedure: The viscosity was measured at 25° C. using a digital viscometer (Model DVL-B, manufactured by Toki Sangyo Co., Ltd., Japan).

Relative drying rate = type: physicochemical; conditions: 50° C., 20 minutes; relative to Elease M-9000
Procedure: (10) Relative Drying Rate
(§1) 10 g of a sample compound and 10 g of a glycol ether-type detergent (Elease M-9000, manufactured by Asahi Kasei Kogyo K.K., Japan) were individually placed in an oven and heated at 50° C. for 20 minutes. Then, a measurement was done with respect to the decrease in the weight of the sample compound as well as the decrease in the weight of Elease M-9000. The relative drying rate was calculated according to the following formula: [formula] (11) Oil Solubility Characteristics

[3] = Oil solubility characteristics; type: physicochemical; conditions: 100 g sample compound
Procedure: as §1
Each of the oils mentioned below was individually added to 100 g of a sample compound while stirring until a saturation of the sample compound with the oil was reached. The solubility (%) was expressed in terms of the percent expression of the weight of the oil dissolved in 100 g of the sample compound, with the dissolution of 100 g of the oil being taken as 100%. For example, when the amount of the oil dissolved was n g, the solubility was expressed as n %. The above-mentioned oils were: a mineral oil (Smoil PS-260, manufactured by Matsumura Sekiyu Kenkyusho, Japan), a drawing oil (Daphne Masterdraw 533WD, manufactured by Idemitsu Kosan Co., Ltd., Japan), a press oil (Uni Press DP-120, manufactured by Nippon Sekiyu Co., Ltd., Japan) and a rosin oil (sold by Kishida Kagaku Co., Ltd., Japan).

[4] = Overall comparison of properties in Table 2; conditions: Table 2 comparison in words
Procedure: Properties of the product were measured and results of the measurements are shown in Table 2, together with those of Example 1 for easy comparison.

[5] = background, result in words; cited from earlier work
Separability from water = type: physicochemical; conditions: result in words
Procedure: (6) Separability from Water
An equivolume mixture of a sample compound and water was vigorously shaken and then allowed to stand. After a period of 5 minutes, the degree of separation of the sample compound from water was judged by the naked eye.

| SMILES | Boiling point [1] | Flash point (Flash point (JIS-K2265)) | Solubility (In water) [2] | Solubility (Water in) [2] | also measured |
| --- | --- | --- | --- | --- | --- |
| COCC(C)OC(C)=O (stereo not drawn) [compound 4, Propylene glycol methyl ether acetate] | 146 °C | 47 °C | 3.0% | 19.0% |  |
| CCCCOCC(C)OCCCC (stereo not drawn) [compound 5, Propylene glycol di-n-butyl ether] | 190 °C | 69 °C | 2.0% | 0.6% |  |
| COCC(C)OC1CCCCC1 (stereo not drawn) [Example 1, propylene glycol methyl cyclohexyl ether] | 175 °C | 73 °C | 0.3% | 1.4% | solubility in water [2]: 0.3%; viscosity (Viscosity): 2.4 cP; Relative drying rate (Relative drying rate): 77%; Oil solubility characteristics (Drawing oil) [3]: A (50% or more); Oil solubility characteristics (Mineral oil) [3]: A (50% or more); Oil solubility characteristics (Press oil) [3]: A (50% or more); Oil solubility characteristics (Rosin oil) [3]: A (50% or more); results vs Comparative Example 9 (relative drying rate, viscosity, solubility in water, oil solubility) [4]: very superior |
| CCCCOCC(C)O (stereo not drawn) [compound 3, Propylene glycol mono-n-butyl ether] | 170 °C | 59 °C | 5.6% | 14.9% |  |
| COCCOCCOC [diethylene glycol dimethyl ether] |  |  |  |  | solubility in water [5]: extremely high solubility in water; toxicity [5]: high toxicity |
| CCCCCCOCCO [Comparative Example 1, Ethylene glycol mono-n-hexyl ether] | 208 °C | 82 °C | 1.0% | 18.8% |  |
| CCCCCCOCCOCCO [Comparative Example 2, Diethylene glycol mono-n-hexyl ether] |  | 140 °C |  |  | separability from water (Separability from water): good |
| CCCCOCCOCCO [Comparative Example 7, Diethylene glycol monobutyl ether] |  | 116 °C |  |  | separability from water (Separability from water): poor; solubility in water [5]: disadvantageously high |
| C=C(C)C1CC=C(C)CC1 (stereo not drawn) [Comparative Example 6, Limonene] |  | 45 °C |  |  | Flash point (Flash point (JIS-K2265); result in words): low; separability from water (Separability from water): good |
| CCCCCCOCCOCCO [diethylene glycol monohexyl ether] |  |  |  |  | viscosity [5]: disadvantageously high viscosity |
| CCOCCOCCOCC [Comparative Example 8, Diethylene glycol diethyl ether] |  | 72 °C |  |  | separability from water (Separability from water): poor; solubility in water [5]: extremely high solubility in water; toxicity [5]: high toxicity |
| COCC(C)OC1CCCCC1O (stereo not drawn) [Example 3, 2-hydroxycyclohexyloxymethoxypropane] |  |  | 2.7% | 11.7% | Boiling point ([1]; Measured at 5 mm/Hg): 93 °C |
| CC(O)COC1CCCCC1 (stereo not drawn) [Comparative Example 9, 1-cyclohexyloxy-2-propanol] | 208 °C | 88 °C |  |  | solubility in water [2]: 1%; viscosity (Viscosity): 14 cP; Relative drying rate (Relative drying rate): 36%; Oil solubility characteristics (Drawing oil) [3]: E (Less than 2%); Oil solubility characteristics (Mineral oil) [3]: A (50% or more); Oil solubility characteristics (Press oil) [3]: A (50% or more); Oil solubility characteristics (Rosin oil) [3]: C (10% to less than 20%); dissolving power for oils [5]: poor dissolving power for oils; drying rate [5]: low drying rate; solubility in water [5]: high solubility in water; viscosity [5]: high viscosity |
| CCOCC(C)OC1CCCCC1 (stereo not drawn) [Example 2, propylene glycol ethyl cyclohexyl ether] | 192 °C | 80 °C | 0.2% | 0.7% |  |
